Results taken from US10716829B2, “Method and composition for treatment of hair loss” (NATIONAL HEALTH RESEARCH INSTITUTES, priority 2015, dated 2020).

Tested on: bulge keratinocytes (CD34+α6+)
Assay: Colony forming assay on sorted CD34+α6+ bulge keratinocytes in absence or presence of DAPT
Format: cell-based, mouse
Details: 10 μM for 7 days, cultured with feeders, vs DMSO-treated cultures; keratinocytes from 8-week-old wild type mice
Protocol: FIG. 5 is a graph showing quantification of a colony forming assay on sorted CD34+α6+ keratinocytes in the absence or presence of DAFT. Equal numbers of sorted CD34±α6+ keratinocytes from 8-week-old wild type mice were cultured with feeders and treated with either DMSO as a vehicle control or 10 μM DAFT for 7 days. […] P<0.05, **:P<0.01.
We investigated whether the DSB signal seen in Pofut1/Tgfb3-Cre hair follicles was caused by aberrant cell proliferation, which has been reported in the case of oncogene-induced DNA damage checkpoint responses. To test this hypothesis, bulge keratinocytes were isolated from 8 weeks old wild type mice by FACS and cultured in the absence or presence of a γ-secretase inhibitor DAPT (Notch signaling inhibitor).

C[C@H](NC(=O)Cc1cc(F)cc(F)c1)C(=O)N[C@H](C(=O)OC(C)(C)C)c1ccccc1 [DAPT]
numbers of colonies: increases
size of colonies: increases
